Results as given in ChEMBL document CHEMBL3046216, “Synthesis, biological evaluation and QSAR study of a series of substituted quinazolines as antimicrobial agents” (2013).
Converted amounts (≈) assume the structure as drawn. The source made the active and inactive calls. No cut-off for these calls is given here.

What follows are compounds tested on Pseudomonas aeruginosa (assay: Antimicrobial activity against Pseudomonas aeruginosa ATCC 27853 assessed as growth inhibition after 24 hr by NCCLS broth dilution method). Details: not given.
Type: functional
In the case of `CN1CCN(c2cc3ncnc(Sc4nnc(-c5cccnc5)o4)c3cc2NC(=S)Nc2ccc(Cl)cc2)CC1`, the MIC is reported as “inactive”. For `CN1CCN(c2cc3ncnc(Sc4nnc(-c5cccnc5)o4)c3cc2NC(=O)Nc2ccccc2Cl)CC1`, the MIC was “inactive”. In the case of `O=C(NCCc1ccccc1)Nc1ccc2ncnc(Sc3nnc(-c4cccnc4)o3)c2c1`, the MIC is reported as “inactive”. With `Cc1ccc(NC(=O)Nc2cc3c(Sc4nnc(-c5cccnc5)o4)ncnc3cc2N2CCN(C)CC2)cc1` the MIC was “inactive”. With `Cc1ccc(NC(=S)Nc2cc3c(Sc4nnc(-c5cccnc5)o4)ncnc3cc2N2CCN(C)CC2)cc1` the MIC was “inactive”. For `CN1CCN(c2cc3ncnc(Sc4nnc(-c5cccnc5)o4)c3cc2NC(=O)Nc2cccc(Cl)c2)CC1`, the MIC was “inactive”. For `CN1CCN(c2cc3ncnc(Sc4nnc(-c5cccnc5)o4)c3cc2NC(=S)Nc2ccccc2)CC1`, the MIC was “inactive”. In the case of `Cc1cccc(NC(=S)Nc2ccc3ncnc(Sc4nnc(-c5cccnc5)o4)c3c2)c1`, the MIC is reported as “inactive”. With `Cc1ccc(NC(=O)Nc2ccc3ncnc(Sc4nnc(-c5cccnc5)o4)c3c2)cc1` the MIC was “inactive”.

Same assay, conditions: ATCC 27853, 24 h
For `CN1CCN(c2cc3ncnc(Sc4nnc(-c5cccnc5)o4)c3cc2NC(=S)Nc2ccc(Cl)cc2)CC1`, the MIC was 50 µg/mL (≈ 84.7 µM). `CN1CCN(c2cc3ncnc(Sc4nnc(-c5cccnc5)o4)c3cc2NC(=O)Nc2ccccc2Cl)CC1` was tested, and the MIC was 100 µg/mL (≈ 174 µM). In the case of `O=C(NCCc1ccccc1)Nc1ccc2ncnc(Sc3nnc(-c4cccnc4)o3)c2c1`, the MIC is reported as 75 µg/mL (≈ 160 µM). In the case of `Cc1ccc(NC(=O)Nc2cc3c(Sc4nnc(-c5cccnc5)o4)ncnc3cc2N2CCN(C)CC2)cc1`, the MIC is reported as 50 µg/mL (≈ 90.3 µM). `Cc1ccc(NC(=S)Nc2cc3c(Sc4nnc(-c5cccnc5)o4)ncnc3cc2N2CCN(C)CC2)cc1` gave an MIC of 50 µg/mL (≈ 87.8 µM). Compound `CN1CCN(c2cc3ncnc(Sc4nnc(-c5cccnc5)o4)c3cc2NC(=O)Nc2cccc(Cl)c2)CC1` has an MIC of 25 µg/mL (≈ 43.5 µM). With `CN1CCN(c2cc3ncnc(Sc4nnc(-c5cccnc5)o4)c3cc2NC(=S)Nc2ccccc2)CC1` the MIC was 50 µg/mL (≈ 90 µM). Work on `Cc1cccc(NC(=S)Nc2ccc3ncnc(Sc4nnc(-c5cccnc5)o4)c3c2)c1` yielded an MIC of 100 µg/mL (≈ 212 µM). For `Cc1ccc(NC(=O)Nc2ccc3ncnc(Sc4nnc(-c5cccnc5)o4)c3c2)cc1`, the MIC was 12.5 µg/mL (≈ 27.4 µM).

These compounds were tested on Bacillus subtilis (assay: Antimicrobial activity against Bacillus subtilis ATCC 6633 assessed as growth inhibition after 24 hr by NCCLS broth dilution method). Details: not given.
Type: functional
For `CN1CCN(c2cc3ncnc(Sc4nnc(-c5cccnc5)o4)c3cc2NC(=S)Nc2ccc(Cl)cc2)CC1`, the MIC was “inactive”. In the case of `CN1CCN(c2cc3ncnc(Sc4nnc(-c5cccnc5)o4)c3cc2NC(=O)Nc2ccccc2Cl)CC1`, the MIC is reported as “inactive”. For `O=C(NCCc1ccccc1)Nc1ccc2ncnc(Sc3nnc(-c4cccnc4)o3)c2c1`, the MIC was “inactive”. With `Cc1ccc(NC(=O)Nc2cc3c(Sc4nnc(-c5cccnc5)o4)ncnc3cc2N2CCN(C)CC2)cc1` the MIC was “inactive”. With `Cc1ccc(NC(=S)Nc2cc3c(Sc4nnc(-c5cccnc5)o4)ncnc3cc2N2CCN(C)CC2)cc1` the MIC was “inactive”. In the case of `CN1CCN(c2cc3ncnc(Sc4nnc(-c5cccnc5)o4)c3cc2NC(=O)Nc2cccc(Cl)c2)CC1`, the MIC is reported as “inactive”. For `CN1CCN(c2cc3ncnc(Sc4nnc(-c5cccnc5)o4)c3cc2NC(=S)Nc2ccccc2)CC1`, the MIC was “inactive”. In the case of `Cc1cccc(NC(=S)Nc2ccc3ncnc(Sc4nnc(-c5cccnc5)o4)c3c2)c1`, the MIC is reported as “inactive”. `Cc1ccc(NC(=O)Nc2ccc3ncnc(Sc4nnc(-c5cccnc5)o4)c3c2)cc1` was tested, and the MIC was “inactive”.

Same assay, conditions: ATCC 6633, 24 h
In the case of `CN1CCN(c2cc3ncnc(Sc4nnc(-c5cccnc5)o4)c3cc2NC(=S)Nc2ccc(Cl)cc2)CC1`, the MIC is reported as 12.5 µg/mL (≈ 21.2 µM). Work on `CN1CCN(c2cc3ncnc(Sc4nnc(-c5cccnc5)o4)c3cc2NC(=O)Nc2ccccc2Cl)CC1` yielded an MIC of 50 µg/mL (≈ 87.1 µM). Compound `O=C(NCCc1ccccc1)Nc1ccc2ncnc(Sc3nnc(-c4cccnc4)o3)c2c1` has an MIC of 50 µg/mL (≈ 106 µM). In the case of `Cc1ccc(NC(=O)Nc2cc3c(Sc4nnc(-c5cccnc5)o4)ncnc3cc2N2CCN(C)CC2)cc1`, the MIC is reported as 12.5 µg/mL (≈ 22.6 µM). With `Cc1ccc(NC(=S)Nc2cc3c(Sc4nnc(-c5cccnc5)o4)ncnc3cc2N2CCN(C)CC2)cc1` the MIC was 50 µg/mL (≈ 87.8 µM). Work on `CN1CCN(c2cc3ncnc(Sc4nnc(-c5cccnc5)o4)c3cc2NC(=O)Nc2cccc(Cl)c2)CC1` yielded an MIC of 12.5 µg/mL (≈ 21.8 µM). `CN1CCN(c2cc3ncnc(Sc4nnc(-c5cccnc5)o4)c3cc2NC(=S)Nc2ccccc2)CC1` showed an MIC of 25 µg/mL (≈ 45 µM). For `Cc1cccc(NC(=S)Nc2ccc3ncnc(Sc4nnc(-c5cccnc5)o4)c3c2)c1`, the MIC was 75 µg/mL (≈ 159 µM). `Cc1ccc(NC(=O)Nc2ccc3ncnc(Sc4nnc(-c5cccnc5)o4)c3c2)cc1` gave an MIC of 75 µg/mL (≈ 165 µM).

These compounds were tested on Escherichia coli (assay: Antimicrobial activity against Escherichia coli ATCC 25922 assessed as growth inhibition after 24 hr by NCCLS broth dilution method). Details: not given.
Type: functional
`CN1CCN(c2cc3ncnc(Sc4nnc(-c5cccnc5)o4)c3cc2NC(=S)Nc2ccc(Cl)cc2)CC1` was tested, and the MIC was “inactive”. `CN1CCN(c2cc3ncnc(Sc4nnc(-c5cccnc5)o4)c3cc2NC(=O)Nc2ccccc2Cl)CC1` was tested, and the MIC was “inactive”. For `O=C(NCCc1ccccc1)Nc1ccc2ncnc(Sc3nnc(-c4cccnc4)o3)c2c1`, the MIC was “inactive”. For `Cc1ccc(NC(=O)Nc2cc3c(Sc4nnc(-c5cccnc5)o4)ncnc3cc2N2CCN(C)CC2)cc1`, the MIC was “inactive”. With `Cc1ccc(NC(=S)Nc2cc3c(Sc4nnc(-c5cccnc5)o4)ncnc3cc2N2CCN(C)CC2)cc1` the MIC was “inactive”. `CN1CCN(c2cc3ncnc(Sc4nnc(-c5cccnc5)o4)c3cc2NC(=O)Nc2cccc(Cl)c2)CC1` was tested, and the MIC was “inactive”. `CN1CCN(c2cc3ncnc(Sc4nnc(-c5cccnc5)o4)c3cc2NC(=S)Nc2ccccc2)CC1` was tested, and the MIC was “inactive”. With `Cc1cccc(NC(=S)Nc2ccc3ncnc(Sc4nnc(-c5cccnc5)o4)c3c2)c1` the MIC was “inactive”. For `Cc1ccc(NC(=O)Nc2ccc3ncnc(Sc4nnc(-c5cccnc5)o4)c3c2)cc1`, the MIC was “inactive”.

Same assay, conditions: ATCC 25922, 24 h
`CN1CCN(c2cc3ncnc(Sc4nnc(-c5cccnc5)o4)c3cc2NC(=S)Nc2ccc(Cl)cc2)CC1` showed an MIC of 50 µg/mL (≈ 84.7 µM). In the case of `CN1CCN(c2cc3ncnc(Sc4nnc(-c5cccnc5)o4)c3cc2NC(=O)Nc2ccccc2Cl)CC1`, the MIC is reported as 50 µg/mL (≈ 87.1 µM). Work on `O=C(NCCc1ccccc1)Nc1ccc2ncnc(Sc3nnc(-c4cccnc4)o3)c2c1` yielded an MIC of 50 µg/mL (≈ 106 µM). `Cc1ccc(NC(=O)Nc2cc3c(Sc4nnc(-c5cccnc5)o4)ncnc3cc2N2CCN(C)CC2)cc1` was tested, and the MIC was 50 µg/mL (≈ 90.3 µM). Work on `Cc1ccc(NC(=S)Nc2cc3c(Sc4nnc(-c5cccnc5)o4)ncnc3cc2N2CCN(C)CC2)cc1` yielded an MIC of 50 µg/mL (≈ 87.8 µM). `CN1CCN(c2cc3ncnc(Sc4nnc(-c5cccnc5)o4)c3cc2NC(=O)Nc2cccc(Cl)c2)CC1` was tested, and the MIC was 50 µg/mL (≈ 87.1 µM). `CN1CCN(c2cc3ncnc(Sc4nnc(-c5cccnc5)o4)c3cc2NC(=S)Nc2ccccc2)CC1` showed an MIC of 25 µg/mL (≈ 45 µM). `Cc1cccc(NC(=S)Nc2ccc3ncnc(Sc4nnc(-c5cccnc5)o4)c3c2)c1` gave an MIC of 50 µg/mL (≈ 106 µM). `Cc1ccc(NC(=O)Nc2ccc3ncnc(Sc4nnc(-c5cccnc5)o4)c3c2)cc1` was tested, and the MIC was 50 µg/mL (≈ 110 µM).

Each compound was assayed on Staphylococcus aureus (assay: Antimicrobial activity against Staphylococcus aureus ATCC 25923 assessed as growth inhibition after 24 hr by NCCLS broth dilution method). Details: not given.
Type: functional
For `CN1CCN(c2cc3ncnc(Sc4nnc(-c5cccnc5)o4)c3cc2NC(=S)Nc2ccc(Cl)cc2)CC1`, the MIC was “inactive”. For `CN1CCN(c2cc3ncnc(Sc4nnc(-c5cccnc5)o4)c3cc2NC(=O)Nc2ccccc2Cl)CC1`, the MIC was “inactive”. With `O=C(NCCc1ccccc1)Nc1ccc2ncnc(Sc3nnc(-c4cccnc4)o3)c2c1` the MIC was “inactive”. In the case of `Cc1ccc(NC(=O)Nc2cc3c(Sc4nnc(-c5cccnc5)o4)ncnc3cc2N2CCN(C)CC2)cc1`, the MIC is reported as “inactive”. `Cc1ccc(NC(=S)Nc2cc3c(Sc4nnc(-c5cccnc5)o4)ncnc3cc2N2CCN(C)CC2)cc1` was tested, and the MIC was “inactive”. For `CN1CCN(c2cc3ncnc(Sc4nnc(-c5cccnc5)o4)c3cc2NC(=O)Nc2cccc(Cl)c2)CC1`, the MIC was “inactive”. For `CN1CCN(c2cc3ncnc(Sc4nnc(-c5cccnc5)o4)c3cc2NC(=S)Nc2ccccc2)CC1`, the MIC was “inactive”. For `Cc1cccc(NC(=S)Nc2ccc3ncnc(Sc4nnc(-c5cccnc5)o4)c3c2)c1`, the MIC was “inactive”. For `Cc1ccc(NC(=O)Nc2ccc3ncnc(Sc4nnc(-c5cccnc5)o4)c3c2)cc1`, the MIC was “inactive”.

Same assay, conditions: ATCC 25923, 24 h
For `CN1CCN(c2cc3ncnc(Sc4nnc(-c5cccnc5)o4)c3cc2NC(=S)Nc2ccc(Cl)cc2)CC1`, the MIC was 25 µg/mL (≈ 42.4 µM). With `CN1CCN(c2cc3ncnc(Sc4nnc(-c5cccnc5)o4)c3cc2NC(=O)Nc2ccccc2Cl)CC1` the MIC was 25 µg/mL (≈ 43.5 µM). `O=C(NCCc1ccccc1)Nc1ccc2ncnc(Sc3nnc(-c4cccnc4)o3)c2c1` showed an MIC of 12.5 µg/mL (≈ 26.6 µM). `Cc1ccc(NC(=O)Nc2cc3c(Sc4nnc(-c5cccnc5)o4)ncnc3cc2N2CCN(C)CC2)cc1` was tested, and the MIC was 25 µg/mL (≈ 45.2 µM). `Cc1ccc(NC(=S)Nc2cc3c(Sc4nnc(-c5cccnc5)o4)ncnc3cc2N2CCN(C)CC2)cc1` showed an MIC of 12.5 µg/mL (≈ 21.9 µM). In the case of `CN1CCN(c2cc3ncnc(Sc4nnc(-c5cccnc5)o4)c3cc2NC(=O)Nc2cccc(Cl)c2)CC1`, the MIC is reported as 6.25 µg/mL (≈ 10.9 µM). With `CN1CCN(c2cc3ncnc(Sc4nnc(-c5cccnc5)o4)c3cc2NC(=S)Nc2ccccc2)CC1` the MIC was 50 µg/mL (≈ 90 µM). `Cc1cccc(NC(=S)Nc2ccc3ncnc(Sc4nnc(-c5cccnc5)o4)c3c2)c1` gave an MIC of 75 µg/mL (≈ 159 µM). For `Cc1ccc(NC(=O)Nc2ccc3ncnc(Sc4nnc(-c5cccnc5)o4)c3c2)cc1`, the MIC was 12.5 µg/mL (≈ 27.4 µM).
